The values below are quoted from earlier work in PubChem BioAssay AID1259409 (Chemical Carcinogenesis Research Information System (CCRIS), 2018).

The subject of this data set is rodent chemically induced tumor inhibition, incidence and multiplicity. The data set can be described thus: CCRIS tumor inhibitor studies.

As for `NC(N)=NCCC[C@H](N)C(=O)O`, the “tumour outcome (control, treated, inhibition, significance)” value is listed as 24/30 (80%), 22/30 (73%), 8%, not significant (Carcinogen: 7,12-DIMETHYLBENZ[A]ANTHRACENE, 57-97-6, Dose [Inhibitor]: 0, 5% IN A 14% CASEIN DIET BEGINNING 2 WK PRIOR TO CARCINOGEN DOSE AND CONTINUING FOR 21 WK (STUDY DURATION: 23 WK), Route [Inhibitor]: ORAL, Species: RAT, Strain/Sex: SPRAGUE-DAWLEY/FEMALE, Target Tissue: Type of Lesion: MAMMARY GLAND: TUMOR, Dose [Carcinogen]: 7.5 MG IN 0.75 ML SESAME OIL ONCE AT 50 D OF AGE, Promoter: NONE USED); 95%, 25%, 74%, not calculated (Carcinogen: 7,12-DIMETHYLBENZ[A]ANTHRACENE, 57-97-6, Dose [Inhibitor]: 5% L-ARGININE IN DIET STARTING 7 D BEFORE DMBA ADMINISTRATION (STUDY DURATION: 21 WK), Route [Inhibitor]: ORAL, Species: RAT, Strain/Sex: SPRAGUE DAWLEY/FEMALE, Target Tissue: Type of Lesion: MAMMARY GLAND: TUMOR, Dose [Carcinogen]: 15% OIL EMULSION, 25 MG/KG BW ADMINISTERED ONCE, Promoter: NONE USED); 100%, 80%, 20%, not calculated (Carcinogen: 7,12-DIMETHYLBENZ[A]ANTHRACENE, 57-97-6, Dose [Inhibitor]: 5% L-ARGININE IN DIET STARTING 7 D BEFORE DMBA TREATMENT FOR 3 M AND THEN CONTROL DIET (STUDY DURATION: 32 WK), Route [Inhibitor]: ORAL, Species: RAT, Strain/Sex: SPRAGUE DAWLEY/FEMALE, Target Tissue: Type of Lesion: MAMMARY GLAND: TUMOR, Dose [Carcinogen]: 15% OIL EMULSION, 25 MG/KG BW ADMINISTERED ONCE, Promoter: NONE USED); 24/29 (83%), 11/18 (61%), 26%, not significant (Carcinogen: HYDRAZINE SULFATE, 10034-93-2, Dose [Inhibitor]: 1.1 MG/D IN DIET STARTING 1 WK PRIOR TO ADMINISTRATION OF CARCINOGEN UNTIL END OF EXPERIMENT (STUDY DURATION: APPROXIMAT, Route [Inhibitor]: ORAL, Species: MOUSE, Strain/Sex: SWISS/MALE, FEMALE, Target Tissue: Type of Lesion: LIVER AND LUNG: COMBINED TUMORS, Dose [Carcinogen]: 1.1 MG/D 5 D/WK UNTIL 12 MO OF AGE, Promoter: NONE USED); 15/29 (52%), 3/10 (30%), 42%, not significant (Carcinogen: ISONIAZID, 54-85-3, Dose [Inhibitor]: 1.1 MG/MOUSE/D SIMULTANEOUS WITH CARCINOGEN 6 D/WK (STUDY DURATION: 24 MO), Route [Inhibitor]: INTRAGASTRIC, Species: MOUSE, Strain/Sex: SWISS/MALE, Target Tissue: Type of Lesion: LUNG: TUMOR, Dose [Carcinogen]: 1.1 MG/MOUSE/D SIMULTANEOUS WITH INHIBITOR, Promoter: NONE USED); 28/30 (93%), 27/30 (90%), 3%, not significant (Carcinogen: N-METHYL-N-NITROSOUREA, 684-93-5, Dose [Inhibitor]: 0, 5% IN A 14% CASEIN DIET BEGINNING 2 WK PRIOR TO CARCINOGEN DOSE AND CONTINUING FOR 21 WK (STUDY DURATION: 23 WK), Route [Inhibitor]: ORAL, Species: RAT, Strain/Sex: SPRAGUE-DAWLEY/FEMALE, Target Tissue: Type of Lesion: MAMMARY GLAND: TUMOR, Dose [Carcinogen]: 4 MG/100 G BW ONCE AT 50 D OF AGE, Promoter: NONE USED).
With `Clc1ccccc1C(c1ccccc1)(c1ccccc1)n1ccnc1`, the “tumour outcome (control, treated, inhibition, significance)” value (Carcinogen: 3-METHYLCHOLANTHRENE, 56-49-5, Dose [Inhibitor]: 0, 2.9 UMOL IN 0.1 ML ACETONE 1 HR PRIOR TO CARCINOGEN DOSE 2/WK FOR 16 WK (STUDY DURATION: 16 WK), Route [Inhibitor]: DERMAL, Species: MOUSE, Strain/Sex: BALB/FEMALE, Target Tissue: Type of Lesion: SKIN: TUMORS, Dose [Carcinogen]: 1.8 UMOL IN 0.2 ML ACETONE 2/WK FOR 16 WK, Promoter: NONE USED) is given as 100%, 70%, 30%, p<0.05.
`CC1=CC(=O)c2c(O)cccc2C1=O`: the “tumour outcome (control, treated, inhibition, significance)” value is given as 6/28 (21%), 3/29 (10%), 52%, not significant (Carcinogen: AZOXYMETHANE [25843-45-2], Dose [Inhibitor]: 200 PPM IN DIET FOR 4 WK BEGINNING 1 WK PRIOR TO FIRST CARCINOGEN DOSE (STUDY DURATION: 35 WK), Route [Inhibitor]: ORAL, Species: RAT, Strain/Sex: F344/MALE, Target Tissue: Type of Lesion: COLON: ADENOMA, Dose [Carcinogen]: 15 MG/KG BW 1X/WK FOR 3 WK (STUDY DURATION: 35 WK), Promoter: NONE); 8/28 (29%), 8/29 (28%), 3%, not significant (Carcinogen: AZOXYMETHANE [25843-45-2], Dose [Inhibitor]: 200 PPM IN DIET FOR 4 WK BEGINNING 1 WK PRIOR TO FIRST CARCINOGEN DOSE (STUDY DURATION: 35 WK), Route [Inhibitor]: ORAL, Species: RAT, Strain/Sex: F344/MALE, Target Tissue: Type of Lesion: COLON: CARCINOMA, Dose [Carcinogen]: 15 MG/KG BW 1X/WK FOR 3 WK (STUDY DURATION: 35 WK), Promoter: NONE); 7/28 (25%), 3/29 (10%), 60%, not significant (Carcinogen: AZOXYMETHANE [25843-45-2], Dose [Inhibitor]: 200 PPM IN DIET FOR 4 WK BEGINNING 1 WK PRIOR TO FIRST CARCINOGEN DOSE (STUDY DURATION: 35 WK), Route [Inhibitor]: ORAL, Species: RAT, Strain/Sex: F344/MALE, Target Tissue: Type of Lesion: SMALL INTESTINE: CARCINOMA, Dose [Carcinogen]: 15 MG/KG BW 1X/WK FOR 3 WK (STUDY DURATION: 35 WK), Promoter: NONE).
For `C=C(C)[C@@H]1CC[C@]2(C(=O)O)CC[C@]3(C)[C@H](CC[C@@H]4[C@@]5(C)CC[C@H](O)C(C)(C)[C@@H]5CC[C@]43C)[C@@H]12`, the “tumour outcome (control, treated, inhibition, significance)” value (Carcinogen: 7,12-DIMETHYLBENZ[A]ANTHRACENE, 57-97-6, Dose [Inhibitor]: 0, 5 UMOL 2/WK BEGINNING 1 WK POST CARCINOGEN TREATMENT AND CONTINUING FOR 18 WK (STUDY DURATION: 19 WK), Route [Inhibitor]: DERMAL, Species: MOUSE, Strain/Sex: ICR/FEMALE, Target Tissue: Type of Lesion: SKIN: PAPILLOMA, Dose [Carcinogen]: 50 UG ONCE, Promoter: 12-O-TETRADECANOYLPHORBOL-13-ACETATE, 16561-29-8) was 100%, 65%, 35%, not calculated.
On to `Cc1c(C)c(N)c(C)c(C)c1N`, for which, under “Carcinogen: 7,12-DIMETHYLBENZ[A]ANTHRACENE, 57-97-6, Dose [Inhibitor]: 0.1% IN POWDERED DIET BEGINNING 1 WK POST CARCINOGEN DOSE FOR 51 WK (STUDY DURATION: 52 WK), Route [Inhibitor]: ORAL, Species: RAT, Strain/Sex: SPRAGUE-DAWLEY/FEMALE, Target Tissue: Type of Lesion: EAR DUCT: BENIGN TUMOR, Dose [Carcinogen]: 2.5 MG/100 G BW IN 0.5 ML SESAME OIL ONCE, Promoter: NONE USED”, the outcome is listed as 7/19 (37%), 5/17 (29%), 20, not calculated. The “tumour outcome (control, treated, inhibition, significance)” value was 6/19 (32%), 6/17 (35%), -12%, not calculated (Carcinogen: 7,12-DIMETHYLBENZ[A]ANTHRACENE, 57-97-6, Dose [Inhibitor]: 0.1% IN POWDERED DIET BEGINNING 1 WK POST CARCINOGEN DOSE FOR 51 WK (STUDY DURATION: 52 WK), Route [Inhibitor]: ORAL, Species: RAT, Strain/Sex: SPRAGUE-DAWLEY/FEMALE, Target Tissue: Type of Lesion: MAMMARY GLAND: CARCINOMA, Dose [Carcinogen]: 2.5 MG/100 G BW IN 0.5 ML SESAME OIL ONCE, Promoter: NONE USED) and 15/19 (79%), 4/17 (24%), 71%, p<0.01 (Carcinogen: 7,12-DIMETHYLBENZ[A]ANTHRACENE, 57-97-6, Dose [Inhibitor]: 0.1% IN POWDERED DIET BEGINNING 1 WK POST CARCINOGEN DOSE FOR 51 WK (STUDY DURATION: 52 WK), Route [Inhibitor]: ORAL, Species: RAT, Strain/Sex: SPRAGUE-DAWLEY/FEMALE, Target Tissue: Type of Lesion: MAMMARY GLAND: FIBROADENOMA, Dose [Carcinogen]: 2.5 MG/100 G BW IN 0.5 ML SESAME OIL ONCE, Promoter: NONE USED).
For the molecule `CC(O)CCC(=O)c1ccccc1` (stereo unspecified), the “tumour outcome (control, treated, inhibition, significance)” value is on record as 100%, 95%, 5%, not significant (Carcinogen: 4-(METHYLNITROSAMINO)-1-(3-PYRIDYL)-1-BUTANONE, 64091-91-4, Dose [Inhibitor]: 0, 25 UMOL IN 0.1 ML CORN OIL ONCE 2 HR PRIOR TO CARCINOGEN DOSE (STUDY DURATION: 16 WK), Route [Inhibitor]: GAVAGE, Species: MOUSE, Strain/Sex: STRAIN-A/FEMALE, Target Tissue: Type of Lesion: LUNG: ADENOMA, Dose [Carcinogen]: 10 UMOL IN 0.1 ML SALINE ONCE, Promoter: NONE USED) and 100%, 100%, 0%, not significant (Carcinogen: 4-(METHYLNITROSAMINO)-1-(3-PYRIDYL)-1-BUTANONE, 64091-91-4, Dose [Inhibitor]: 0, 25 UMOL IN 0.1 ML CORN OIL ONCE 2 HR PRIOR TO CARCINOGEN DOSE (STUDY DURATION: 16 WK), Route [Inhibitor]: GAVAGE, Species: MOUSE, Strain/Sex: STRAIN-A/FEMALE, Target Tissue: Type of Lesion: LUNG: TUMOR, Dose [Carcinogen]: 10 UMOL IN 0.1 ML SALINE ONCE, Promoter: NONE USED).
